# From US20230113378A1, “Methods Of Treating Multiple Sclerosis” (priority 2021, published 2023)
# Several values for one entry are separate records, joined by “and”; a condition that tells them apart may be missing. Equal entries are not always repeated. Entries after “also recorded” stand apart in the source; their conditions may differ.
# Columns and labels:
# [1] = tested on: SARS-CoV-2 anti-spike-protein (spike) antibody; assay: SARS-CoV-2 anti-spike IgG ELISA before and after COVID-19 vaccination in RMS patients on ponesimod (study AC-058B202); type: in vivo, human
# Procedure: (§1) Participants in this study receiving 20 mg ponesimod who reported COVID-19 vaccination were analyzed. Blood samples collected before and at least 3 weeks after COVID-19 vaccination were tested for SARS-CoV-2 anti-spike-protein (spike) antibody concentrations (Human SARS-CoV-2 PreSpike IgG ELISA, Nexelis). Response to vaccination was defined as seroconversion in case of negative pre-vaccination antibody testing, or a 4-fold antibody concentration increase in case of positive pre-vaccination antibody result. COVID-19 infection adverse events (AEs) were evaluated in this study sub-population.
# Of the 134 participants, 49 participants had both pre- and post-vaccination blood samples tested for anti-spike antibody concentrations. Out of these 49 participants, 40 (81.6%) met the pre-specified definition of response to COVID-19 vaccination. […] Response was defined as pre-vaccination titer≤lower limit of quantification (LLOQ) and post-vaccination titer >LLOQ; or pre-vaccination titer >LLOQ (i.e., seroconversion in case of negative pre-vaccination antibody testing) and post-vaccination titer >4× increase (i.e., a 4-fold antibody concentration increase in case of positive pre-vaccination antibody result).
# Patients in the Phase 2 extension study AC-058B202 receiving ponesimod 20 mg who reported COVID-19 vaccination were included in this analysis. Blood samples collected before and at least 3 weeks after vaccination were evaluated with Human SARS-CoV-2 PreSpike IgG (spike antibody) enzyme-linked immunoassay (Nexelis). A responder to vaccination was defined as seroconversion in case of negative pre-vaccination antibody testing, or a 4-fold antibody concentration increase in case of positive pre-vaccination antibody result. Responder analysis was performed by vaccine type, and by pre-vaccination lymphocyte count.
# [2] = COVID-19 infection adverse events in vaccinated RMS patients on ponesimod (study AC-058B202); type: in vivo, human
# Procedure: as §1
# [3] = tested on: influenza A/PR/8/34; assay: Neutralizing antibody response to inactivated influenza A/PR/8/34 immunization in mice on ponesimod chow; type: in vivo, female BALB/c mice
# Source text: The neutralizing antibody response to a single intramuscular injection of purified and inactivated influenza A/PR/8/34 was compared in female BALB/c mice that were maintained on different oral ponesimod regimens (Group 1: standard chow; Group 2: continuous specialty chow with ponesimod at 1000 ppm; Group 3: specialty chow with a 4-day discontinuation around immunization).
# Mean percentage inhibition of viral infection by A/PR/8/34 with serum samples, ±SEM.
# Table 5 presents data regarding dilution from neat serum that results in 50% inhibition of viral infection (ID50).
# [4] = tested on: influenza vaccine; conditions: observed previously; cited from earlier work
# [5] = inactivated virus vaccines, post-vaccination
# [6] = inactivated virus vaccines, pre-vaccination
# [7] = mRNA vaccines, post-vaccination
# [8] = mixed vaccines, post-vaccination
# [9] = mixed vaccines, pre-vaccination
# [10] = subjects pre-vaccination negative
# [11] = subjects pre-vaccination positive
# [12] = unspecified vaccines, post-vaccination
# [13] = unspecified vaccines, pre-vaccination
# [14] = viral vector vaccines, post-vaccination
smiles,measurement,setting,value
"CCC/N=C1\S/C(=C\c2ccc(OC[C@H](O)CO)c(Cl)c2)C(=O)N1c1ccccc1C [ponesimod, (R)-5-[3-chloro-4-(2,3-dihydroxy-propoxy)-benz[Z]ylidene]-2-([Z]-propylimino)-3-o-tolyl-thiazolidin-4-one]","Fold increase from baseline of S binding antibody, geometric mean (95% CI)","[1]; all vaccines, 1st vaccine regimen, ponesimod 20 mg",12.90 (7.64; 21.78)
same,Responders (n/N) (%) (95% CI),"[1]; all vaccines, seroconversion or >4-fold increase",40 (81.6%) n/N (%)
same,"Fold increase from baseline, geometric mean (95% CI)",[1]; inactivated virus vaccines,1.29 (0.50; 3.32)
same,Responders (n/N) (%) (95% CI),[1]; inactivated virus vaccines,2 (33.3%) n/N (%)
same,Positive sample n (%) (95% CI),[1]; [5],6 (66.7%) (29.93; 92.51) n (%)
same,"S binding antibody concentration, geometric mean (95% CI)",[1]; [5],84.22 (<LLOQ; 189.22) EU/mL
same,Positive sample n (%) (95% CI),[1]; [6],3 (50.0%) (11.81; 88.19) n (%)
same,"S binding antibody concentration, geometric mean (95% CI)",[1]; [6],65.88 (<LLOQ; 203.92) EU/mL
same,Patients meeting antibody concentration responder criteria,[1]; mRNA COVID-19 vaccines and/or pre-vaccination lymphocyte counts ≥500 cells/mm^3,> 90%
same,"Fold increase from baseline, geometric mean (95% CI)",[1]; mRNA vaccines,20.68 (11.35; 37.68)
same,Responders (n/N) (%) (95% CI),[1]; mRNA vaccines,29 (90.6%) n/N (%)
same,Positive sample n (%) (95% CI),[1]; [7],62 (88.6%) (78.72; 94.93) n (%)
same,"S binding antibody concentration, geometric mean (95% CI)",[1]; [7],833.22 (513.88; 1351.00) EU/mL
same,Positive sample n (%) (95% CI),"[1]; mRNA vaccines, pre-vaccination",5 (15.6%) (5.28; 32.79) n (%)
same,Responders n (%),"[1]; mixed or unspecified vaccine types, 4 participants",4 (100%) n (%)
same,"Fold increase from baseline, geometric mean",[1]; mixed vaccines,11.49
same,Positive sample n (%),[1]; [8],5 (100.0%) n (%)
same,"S binding antibody concentration, geometric mean",[1]; [8],1525.40 EU/mL
same,Positive sample n (%),[1]; [9],1 (33.3%) n (%)
same,"S binding antibody concentration, geometric mean",[1]; [9],<LLOQ
same,"SARS-CoV-2 S binding antibody concentration, geometric mean (95% CI)","[1]; post-vaccination, all vaccines, 1st vaccine regimen, ponesimod 20 mg",621.25 (414.96; 930.08) EU/mL
same,Positive sample n (%) (95% CI),"[1]; post-vaccination, all vaccines, positive = value > LLOQ",89 (86.4%)(78.25; 92.37) n (%)
same,Responders n (%),"[1]; pre-vaccination lymphocyte count <500 cells/mm^3, 16 participants",9 (56.3%) n (%)
same,Responders n (%),"[1]; pre-vaccination lymphocyte count ≥500 cells/mm^3, 32 participants",30 (93.8%) n (%)
same,Positive sample n (%) (95% CI),"[1]; pre-vaccination, all vaccines, positive = value > LLOQ",11 (22.4%) (11.77; 36.62) n (%)
same,Post-vaccination Negative N (%),[1]; [10],5 (13.2%) N (%)
same,Post-vaccination Responder N (%),[1]; [10],33 (86.8%) N (%)
same,Post-vaccination Positive N (%),[1]; subjects pre-vaccination negative (seroconversion),33 (86.8%) N (%)
same,Post-vaccination Negative N (%),[1]; [11],0 N (%)
same,Post-vaccination Positive N (%),[1]; [11],11 (100.0%) N (%)
same,Post-vaccination Responder N (%),[1]; [11],7 (63.6%) N (%)
same,"Fold increase from baseline, geometric mean",[1]; unspecified vaccines,182.01
same,Positive sample n (%),[1]; [12],2 (100.0%) n (%)
same,"S binding antibody concentration, geometric mean",[1]; [12],944.31 EU/mL
same,Positive sample n (%),[1]; [13],0 n (%)
same,"S binding antibody concentration, geometric mean",[1]; [13],<LLOQ
same,"Fold increase from baseline, geometric mean (95% CI)",[1]; viral vector vaccines,7.76 (2.22; 27.11)
same,Responders (n/N) (%) (95% CI),[1]; viral vector vaccines,5 (71.4%) n/N (%)
same,Positive sample n (%) (95% CI),[1]; [14],14 (82.4%) (56.57; 96.2) n (%)
same,"S binding antibody concentration, geometric mean (95% CI)",[1]; [14],390.49 (140.01; 1089.07) EU/mL
same,Positive sample n (%) (95% CI),"[1]; viral vector vaccines, pre-vaccination",2 (28.6%) (3.67; 70.96) n (%)
same,"COVID-19 infection AEs leading to death, n (%)",[2]; >=14 D Post Vx,0 n (%)
same,"COVID-19 infection AEs leading to treatment discontinuation, n (%)",[2]; >=14 D Post Vx,0 n (%)
same,"COVID-19 infection AEs leading to treatment interruption, n (%)",[2]; >=14 D Post Vx,4 (3.0%) n (%)
same,"COVID-19 infection AEs, severity Mild, n (%)",[2]; >=14 D Post Vx,13 (9.7%) n (%)
same,"COVID-19 infection AEs, severity Moderate, n (%)",[2]; >=14 D Post Vx,4 (3.0%) n (%)
same,"COVID-19 infection AEs, severity Severe, n (%)",[2]; >=14 D Post Vx,0 n (%)
same,"Serious COVID-19 infection AEs, n (%)",[2]; >=14 D Post Vx,0 n (%)
same,"Subjects with COVID-19 infection AEs, n (%)",[2]; >=14 D Post Vx,17 (12.7%) n (%)
same,"COVID-19 infection AEs leading to death, n (%)",[2]; >=28 D Post Vx,0 n (%)
same,"COVID-19 infection AEs leading to treatment discontinuation, n (%)",[2]; >=28 D Post Vx,0 n (%)
same,"COVID-19 infection AEs leading to treatment interruption, n (%)",[2]; >=28 D Post Vx,4 (3.0%) n (%)
same,"COVID-19 infection AEs, severity Mild, n (%)",[2]; >=28 D Post Vx,13 (9.7%) n (%)
same,"COVID-19 infection AEs, severity Moderate, n (%)",[2]; >=28 D Post Vx,4 (3.0%) n (%)
same,"COVID-19 infection AEs, severity Severe, n (%)",[2]; >=28 D Post Vx,0 n (%)
same,"Serious COVID-19 infection AEs, n (%)",[2]; >=28 D Post Vx,0 n (%)
same,"Subjects with COVID-19 infection AEs, n (%)",[2]; >=28 D Post Vx,17 (12.7%) n (%)
same,"COVID-19 infection AEs leading to death, n (%)",[2]; Post-Vx,0 n (%)
same,"COVID-19 infection AEs leading to treatment discontinuation, n (%)",[2]; Post-Vx,0 n (%)
same,"COVID-19 infection AEs leading to treatment interruption, n (%)",[2]; Post-Vx,4 (3.0%) n (%)
same,"COVID-19 infection AEs, severity Mild, n (%)",[2]; Post-Vx,13 (9.7%) n (%)
same,"COVID-19 infection AEs, severity Moderate, n (%)",[2]; Post-Vx,4 (3.0%) n (%)
same,"COVID-19 infection AEs, severity Severe, n (%)",[2]; Post-Vx,0 n (%)
same,"Serious COVID-19 infection AEs, n (%)",[2]; Post-Vx,0 n (%)
same,"Subjects with COVID-19 infection AEs, n (%)",[2]; Post-Vx,17 n (%) and 17 (12.7%) n (%)
same,"COVID-19 infection AEs leading to death, n (%)",[2]; Pre-Vx,0 n (%)
same,"COVID-19 infection AEs leading to treatment discontinuation, n (%)",[2]; Pre-Vx,0 n (%)
same,"COVID-19 infection AEs leading to treatment interruption, n (%)",[2]; Pre-Vx,5 (3.7%) n (%)
same,"COVID-19 infection AEs, severity Mild, n (%)",[2]; Pre-Vx,18 (13.4%) n (%)
same,"COVID-19 infection AEs, severity Moderate, n (%)",[2]; Pre-Vx,2 (1.5%) n (%)
same,"COVID-19 infection AEs, severity Severe, n (%)",[2]; Pre-Vx,0 n (%)
same,"Serious COVID-19 infection AEs, n (%)",[2]; Pre-Vx,0 n (%)
same,"Subjects with COVID-19 infection AEs, n (%)",[2]; Pre-Vx,20 n (%) and 20 (14.9%) n (%)
same,"COVID-19 infection AEs leading to treatment interruption, n (%)",[2]; Total,7 (5.2%) n (%)
same,"COVID-19 infection AEs, severity Mild, n (%)",[2]; Total,28 (20.9%) n (%)
same,"COVID-19 infection AEs, severity Moderate, n (%)",[2]; Total,6 (4.5%) n (%)
same,"Subjects with COVID-19 infection AEs, n (%)",[2]; Total,33 (24.6%) n (%)
same,Inhibition titer: dilution from neat serum that results in 50% inhibition of viral infection (ID50),"[3]; Concomitant (Group 2), Day 35",0.004
same,Inhibition titer: dilution from neat serum that results in 50% inhibition of viral infection (ID50),"[3]; Concomitant (Group 2), Day 63",0.003
same,Inhibition titer: dilution from neat serum that results in 50% inhibition of viral infection (ID50),"[3]; Concomitant (Group 2), Day 91",0.004
same,Inhibition titer: dilution from neat serum that results in 50% inhibition of viral infection (ID50),"[3]; Concomitant (Group 2, continuous ponesimod chow 1000 ppm), Day −1",0.050
same,Inhibition titer: dilution from neat serum that results in 50% inhibition of viral infection (ID50),"[3]; Discontinued (Group 3), Day 35",0.001
same,Inhibition titer: dilution from neat serum that results in 50% inhibition of viral infection (ID50),"[3]; Discontinued (Group 3), Day 63",0.002
same,Inhibition titer: dilution from neat serum that results in 50% inhibition of viral infection (ID50),"[3]; Discontinued (Group 3), Day 91",0.003
same,Inhibition titer: dilution from neat serum that results in 50% inhibition of viral infection (ID50),"[3]; Discontinued (Group 3, 4-day discontinuation around immunization), Day −1",0.001
same,Vaccine (antibody) response compared to control mice,"[3]; Group 2, continuously on ponesimod chow, inactivated H1N1 influenza vaccine","attenuated vaccine response; also recorded: blunted, but not absent"
same,Plasma drug levels after wash-out,"Group 3, after a 2-day wash-out period",cleared from plasma
same,Plasma drug levels,"Groups 2 and 3, by Day 5, ponesimod chow 1000 ppm",sufficiently high to reduce lymphocyte counts
CCc1cc(/C(C)=N/OCc2ccc(C3CCCCC3)c(C(F)(F)F)c2)ccc1CN1CC(C(=O)O)C1 [siponimod],Vaccination response to the influenza vaccine,[4],reduced vaccination response
